Laboratory results published in ChEMBL document CHEMBL4725402, “Discovery of thiapyran-pyrimidine derivatives as potential EGFR inhibitors” (Bioorg Med Chem, 2020).
pIC50: −log10 of the molar value. Active and inactive are the calls of the source. The calls are words filed in the database; no cut-off is given here.

Assays:
A549 [1] = assay: Antiproliferation activity against human A549 cells assessed as reduction in cell viability measured after 72 hrs by MTT assay; type: functional, cell-based; details: A549, 72 h
NCI-H1975 [2] = assay: Antiproliferation activity against human NCI-H1975 cells harboring EGFR T790M/L858R mutation assessed as reduction in cell viability measured after 72 hrs by MTT assay; type: functional, cell-based; details: NCI-H1975, 72 h
HeLa = assay: Antiproliferation activity against human HeLa cells assessed as reduction in cell viability measured after 72 hrs by MTT assay; type: functional, cell-based
MCF7 = assay: Antiproliferation activity against human MCF7 cells assessed as reduction in cell viability measured after 72 hrs by MTT assay; type: functional, cell-based; details: MCF7, 72 h
L02 = assay: Cytotoxicity against human L02 cells assessed as reduction in cell viability measured after 72 hrs by MTT assay; type: cell-based; details: L02, 72 h
[3] = Selectivity index, ratio of IC50 for human L02 cells to IC50 for human A549 cells assessed as reduction in cell viability measured after 72 hrs by MTT assay; type: toxicity; details: L02 cells versus A549 cells, read-out: Ratio IC50
Homo sapiens = species on record: Homo sapiens; assay: Inhibition of PI3K (unknown origin) at 1 uM relative to control
[4] = target: Serine/threonine-protein kinase mTOR (Homo sapiens) (UniProt P42345); assay: Inhibition of mTOR (unknown origin) at 1 uM relative to control
[5] = target: Hepatocyte growth factor receptor (Homo sapiens) (UniProt P08581); assay: Inhibition of C-MET (unknown origin) at 1 uM relative to control
[6] = target: Vascular endothelial growth factor receptor 2 (Homo sapiens) (UniProt P35968); assay: Inhibition of KDR (unknown origin) at 1 uM relative to control
[7] = target: Epidermal growth factor receptor (Homo sapiens, UniProt P00533); assay: Inhibition of wild type EGFR (unknown origin) using FAM-labelled peptide as substrate incubated for 10 mins in presence of ATP by Kinase Glo luminescence assay
[8] = target: Epidermal growth factor receptor (Homo sapiens, UniProt P00533, T790M); assay: Inhibition of EGFR T790M mutant (unknown origin) using FAM-labelled peptide as substrate incubated for 10 mins fin presence of ATP by Kinase Glo luminescence assay
[9] = target: Epidermal growth factor receptor (Homo sapiens, UniProt P00533, L858R/T790M); assay: Inhibition of EGFR T790M/L858R mutant (unknown origin) using FAM-labelled peptide as substrate incubated for 10 mins in presence of ATP by Kinase Glo luminescence assay
NCI-H1975 [10] = assay: Induction of morphological changes in human H1975 cells assessed as chromatin shrinkage and apoptotic body formation at 0.01 to 0.10 uM incubated for 6 hrs by AO staining-based fluorescent microscopic analysis; type: functional, cell-based; details: dose microM 0.01-0.10, time 6.0 hrs
NCI-H1975 [11] = assay: Induction of morphological changes in human H1975 cells assessed as chromatin agglutination in nucleus at 0.01 to 0.10 uM incubated for 6 hrs by Hoechst33258 staining-based fluorescent microscopic analysis; type: functional, cell-based; details: dose microM 0.01-0.10, time 6.0 hrs
NCI-H1975 [12] = assay: Induction of morphological changes in human H1975 cells assessed as dense nuclei staining at 0.01 to 0.10 uM incubated for 6 hrs by Hoechst 33258 staining-based fluorescent microscopic analysis; type: functional, cell-based; details: dose microM 0.01-0.10, time 6.0 hrs
NCI-H1975 [13] = assay: Induction of apoptosis in human H1975 cells assessed as late apoptotic cells at 1 to 10 uM incubated for 48 hrs Annexin V-FITC staining based flow cytometric analysis; type: functional, cell-based; details: dose microM 1-10, time […]
NCI-H1975 [14] = assay: Induction of apoptosis in human H1975 cells assessed as necrotic cells at 1 uM incubated for 48 hrs Annexin V-FITC staining based flow cytometric analysis (reference value: 0.08 %); type: functional
NCI-H1975 [15] = assay: Induction of apoptosis in human H1975 cells assessed as late apoptotic cells at 1 uM incubated for 48 hrs Annexin V-FITC staining based flow cytometric analysis (reference value: 1.77 %); type: functional
NCI-H1975 [16] = assay: Induction of apoptosis in human H1975 cells assessed as live cells at 1 uM incubated for 48 hrs Annexin V-FITC staining based flow cytometric analysis (reference value: 96.09 %); type: functional
NCI-H1975 [17] = assay: Induction of apoptosis in human H1975 cells assessed as early apoptotic cells at 1 uM incubated for 48 hrs Annexin V-FITC staining based flow cytometric analysis (reference value: 2.06 %); type: functional
NCI-H1975 [18] = assay: Induction of apoptosis in human H1975 cells assessed as necrotic cells at 5 uM incubated for 48 hrs Annexin V-FITC staining based flow cytometric analysis (reference value: 0.08 %); type: functional
NCI-H1975 [19] = assay: Induction of apoptosis in human H1975 cells assessed as late apoptotic cells at 5 uM incubated for 48 hrs Annexin V-FITC staining based flow cytometric analysis (reference value: 1.77 %); type: functional
NCI-H1975 [20] = assay: Induction of apoptosis in human H1975 cells assessed as live cells at 5 uM incubated for 48 hrs Annexin V-FITC staining based flow cytometric analysis (reference value: 96.09 %); type: functional
NCI-H1975 [21] = assay: Induction of apoptosis in human H1975 cells assessed as early apoptotic cells at 5 uM incubated for 48 hrs Annexin V-FITC staining based flow cytometric analysis (reference value: 2.06 %); type: functional
NCI-H1975 [22] = assay: Induction of apoptosis in human H1975 cells assessed as necrotic cells at 10 uM incubated for 48 hrs Annexin V-FITC staining based flow cytometric analysis (reference value: 0.08 %); type: functional
NCI-H1975 [23] = assay: Induction of apoptosis in human H1975 cells assessed as late apoptotic cells at 10 uM incubated for 48 hrs Annexin V-FITC staining based flow cytometric analysis (reference value: 1.77 %); type: functional
NCI-H1975 [24] = assay: Induction of apoptosis in human H1975 cells assessed as live cells at 10 uM incubated for 48 hrs Annexin V-FITC staining based flow cytometric analysis (reference value: 96.09 %); type: functional
NCI-H1975 [25] = assay: Induction of apoptosis in human H1975 cells assessed as early apoptotic cells at 10 uM incubated for 48 hrs Annexin V-FITC staining based flow cytometric analysis (reference value: 2.06 %); type: functional
A549 [26] = assay: Cell cycle arrest in human A549 cells assessed as accumulation at G0/G1 phase at 1 uM incubated for 48 hrs […] staining based flow cytometric analysis (reference value: 74.69 %); type: functional
A549 [27] = assay: Cell cycle arrest in human A549 cells assessed as accumulation at S phase at 1 uM incubated for 48 hrs […] staining based flow cytometric analysis (reference value: 22.64 %); type: functional
A549 [28] = assay: Cell cycle arrest in human A549 cells assessed as accumulation at G2/M phase at 1 uM incubated for 48 hrs […] staining based flow cytometric analysis (reference value: 2.67 %); type: functional
A549 [29] = assay: Cell cycle arrest in human A549 cells assessed as accumulation at G0/G1 phase at 5 uM incubated for 48 hrs […] staining based flow cytometric analysis (reference value: 74.69 %); type: functional
A549 [30] = assay: Cell cycle arrest in human A549 cells assessed as accumulation at S phase at 5 uM incubated for 48 hrs […] staining based flow cytometric analysis (reference value: 22.64 %); type: functional
A549 [31] = assay: Cell cycle arrest in human A549 cells assessed as accumulation at G2/M phase at 5 uM incubated for 48 hrs […] staining based flow cytometric analysis (reference value: 2.67 %); type: functional
A549 [32] = assay: Cell cycle arrest in human A549 cells assessed as accumulation at G0/G1 phase at 10 uM incubated for 48 hrs […] staining based flow cytometric analysis (reference value: 74.69 %); type: functional
A549 [33] = assay: Cell cycle arrest in human A549 cells assessed as accumulation at S phase at 10 uM incubated for 48 hrs […] staining based flow cytometric analysis (reference value: 22.64 %); type: functional
A549 [34] = assay: Cell cycle arrest in human A549 cells assessed as accumulation at G2/M phase at 10 uM incubated for 48 hrs […] staining based flow cytometric analysis (reference value: 2.67 %); type: functional
A549 [35] = assay: Cell cycle arrest in human A549 cells assessed as accumulation at G2/M phase at 1 to 10 uM incubated for 48 hrs […] staining based flow cytometric analysis; type: functional; details: dose microM 1-10, time […]

Chain of Vascular endothelial growth factor receptor 2 (Homo sapiens) (P35968 whole entry): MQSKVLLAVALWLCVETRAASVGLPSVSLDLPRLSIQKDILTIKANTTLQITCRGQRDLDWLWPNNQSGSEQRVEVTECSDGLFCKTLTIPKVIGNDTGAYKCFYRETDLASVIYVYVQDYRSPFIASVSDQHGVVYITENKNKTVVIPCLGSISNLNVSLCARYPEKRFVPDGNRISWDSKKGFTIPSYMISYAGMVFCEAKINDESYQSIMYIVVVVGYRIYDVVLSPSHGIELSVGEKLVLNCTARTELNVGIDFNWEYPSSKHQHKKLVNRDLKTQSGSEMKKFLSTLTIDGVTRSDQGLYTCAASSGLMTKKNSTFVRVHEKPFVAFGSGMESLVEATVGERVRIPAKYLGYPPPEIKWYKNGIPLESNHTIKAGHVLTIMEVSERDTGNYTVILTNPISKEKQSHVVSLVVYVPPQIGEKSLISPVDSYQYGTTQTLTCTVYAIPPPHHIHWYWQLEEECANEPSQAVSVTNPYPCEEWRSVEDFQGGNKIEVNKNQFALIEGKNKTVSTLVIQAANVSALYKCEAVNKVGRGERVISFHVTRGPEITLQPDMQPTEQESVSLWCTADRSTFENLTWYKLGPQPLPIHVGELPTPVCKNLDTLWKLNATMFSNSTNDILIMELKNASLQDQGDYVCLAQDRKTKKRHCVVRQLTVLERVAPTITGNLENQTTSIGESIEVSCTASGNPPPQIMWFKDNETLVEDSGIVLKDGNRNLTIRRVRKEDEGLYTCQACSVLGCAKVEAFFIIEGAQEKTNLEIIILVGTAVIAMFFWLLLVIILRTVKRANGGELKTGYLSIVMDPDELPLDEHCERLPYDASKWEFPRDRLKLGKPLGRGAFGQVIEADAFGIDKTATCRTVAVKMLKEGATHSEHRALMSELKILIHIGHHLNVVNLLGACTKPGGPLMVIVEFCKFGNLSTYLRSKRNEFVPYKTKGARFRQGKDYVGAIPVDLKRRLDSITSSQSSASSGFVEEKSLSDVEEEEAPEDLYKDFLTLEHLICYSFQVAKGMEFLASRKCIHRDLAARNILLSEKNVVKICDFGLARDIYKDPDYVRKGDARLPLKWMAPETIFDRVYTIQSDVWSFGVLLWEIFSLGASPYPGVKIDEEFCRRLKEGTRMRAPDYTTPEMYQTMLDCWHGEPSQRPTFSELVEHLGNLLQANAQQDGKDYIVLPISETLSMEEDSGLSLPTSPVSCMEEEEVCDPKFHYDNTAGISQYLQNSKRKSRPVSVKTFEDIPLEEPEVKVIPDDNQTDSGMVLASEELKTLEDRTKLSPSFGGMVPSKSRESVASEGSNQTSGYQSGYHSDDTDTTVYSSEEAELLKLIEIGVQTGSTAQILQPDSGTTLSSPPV
Chain of Hepatocyte growth factor receptor (Homo sapiens) (P08581 whole entry): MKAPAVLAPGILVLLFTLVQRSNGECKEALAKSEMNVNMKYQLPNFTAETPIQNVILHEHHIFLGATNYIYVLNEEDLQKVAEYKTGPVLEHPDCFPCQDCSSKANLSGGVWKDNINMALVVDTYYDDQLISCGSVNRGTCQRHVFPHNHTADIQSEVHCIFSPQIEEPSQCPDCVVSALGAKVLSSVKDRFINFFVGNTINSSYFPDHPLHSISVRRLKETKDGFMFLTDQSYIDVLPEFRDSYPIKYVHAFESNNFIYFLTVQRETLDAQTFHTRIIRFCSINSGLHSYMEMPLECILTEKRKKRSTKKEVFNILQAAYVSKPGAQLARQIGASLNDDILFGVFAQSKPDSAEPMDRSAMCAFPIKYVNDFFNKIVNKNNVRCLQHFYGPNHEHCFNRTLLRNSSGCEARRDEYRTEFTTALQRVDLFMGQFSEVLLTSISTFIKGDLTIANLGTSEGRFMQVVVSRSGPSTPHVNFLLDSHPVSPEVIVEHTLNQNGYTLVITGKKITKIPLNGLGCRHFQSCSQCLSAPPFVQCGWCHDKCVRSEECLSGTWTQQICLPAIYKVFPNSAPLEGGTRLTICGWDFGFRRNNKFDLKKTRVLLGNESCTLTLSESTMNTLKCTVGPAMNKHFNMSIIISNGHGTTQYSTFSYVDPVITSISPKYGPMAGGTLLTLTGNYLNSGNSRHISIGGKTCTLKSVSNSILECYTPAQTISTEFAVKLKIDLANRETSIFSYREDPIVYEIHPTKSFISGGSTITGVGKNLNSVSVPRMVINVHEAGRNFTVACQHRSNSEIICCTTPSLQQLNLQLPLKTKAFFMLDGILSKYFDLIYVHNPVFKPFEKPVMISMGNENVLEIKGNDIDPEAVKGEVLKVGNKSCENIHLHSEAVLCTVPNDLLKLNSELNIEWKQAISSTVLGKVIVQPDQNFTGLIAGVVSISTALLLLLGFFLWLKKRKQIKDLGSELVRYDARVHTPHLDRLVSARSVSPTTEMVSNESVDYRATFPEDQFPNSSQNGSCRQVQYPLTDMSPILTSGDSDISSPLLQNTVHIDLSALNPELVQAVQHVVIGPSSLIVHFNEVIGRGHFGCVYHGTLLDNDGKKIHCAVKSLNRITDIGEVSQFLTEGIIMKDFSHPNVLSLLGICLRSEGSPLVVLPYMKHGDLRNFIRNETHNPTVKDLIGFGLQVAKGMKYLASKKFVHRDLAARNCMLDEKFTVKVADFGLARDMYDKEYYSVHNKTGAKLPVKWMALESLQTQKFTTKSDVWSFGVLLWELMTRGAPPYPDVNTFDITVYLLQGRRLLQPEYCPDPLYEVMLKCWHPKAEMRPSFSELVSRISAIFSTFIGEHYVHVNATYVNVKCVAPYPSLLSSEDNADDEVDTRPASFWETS
Chain of Epidermal growth factor receptor (Homo sapiens, UniProt P00533, T790M) (P00533 25-1210 T790M limits assumed): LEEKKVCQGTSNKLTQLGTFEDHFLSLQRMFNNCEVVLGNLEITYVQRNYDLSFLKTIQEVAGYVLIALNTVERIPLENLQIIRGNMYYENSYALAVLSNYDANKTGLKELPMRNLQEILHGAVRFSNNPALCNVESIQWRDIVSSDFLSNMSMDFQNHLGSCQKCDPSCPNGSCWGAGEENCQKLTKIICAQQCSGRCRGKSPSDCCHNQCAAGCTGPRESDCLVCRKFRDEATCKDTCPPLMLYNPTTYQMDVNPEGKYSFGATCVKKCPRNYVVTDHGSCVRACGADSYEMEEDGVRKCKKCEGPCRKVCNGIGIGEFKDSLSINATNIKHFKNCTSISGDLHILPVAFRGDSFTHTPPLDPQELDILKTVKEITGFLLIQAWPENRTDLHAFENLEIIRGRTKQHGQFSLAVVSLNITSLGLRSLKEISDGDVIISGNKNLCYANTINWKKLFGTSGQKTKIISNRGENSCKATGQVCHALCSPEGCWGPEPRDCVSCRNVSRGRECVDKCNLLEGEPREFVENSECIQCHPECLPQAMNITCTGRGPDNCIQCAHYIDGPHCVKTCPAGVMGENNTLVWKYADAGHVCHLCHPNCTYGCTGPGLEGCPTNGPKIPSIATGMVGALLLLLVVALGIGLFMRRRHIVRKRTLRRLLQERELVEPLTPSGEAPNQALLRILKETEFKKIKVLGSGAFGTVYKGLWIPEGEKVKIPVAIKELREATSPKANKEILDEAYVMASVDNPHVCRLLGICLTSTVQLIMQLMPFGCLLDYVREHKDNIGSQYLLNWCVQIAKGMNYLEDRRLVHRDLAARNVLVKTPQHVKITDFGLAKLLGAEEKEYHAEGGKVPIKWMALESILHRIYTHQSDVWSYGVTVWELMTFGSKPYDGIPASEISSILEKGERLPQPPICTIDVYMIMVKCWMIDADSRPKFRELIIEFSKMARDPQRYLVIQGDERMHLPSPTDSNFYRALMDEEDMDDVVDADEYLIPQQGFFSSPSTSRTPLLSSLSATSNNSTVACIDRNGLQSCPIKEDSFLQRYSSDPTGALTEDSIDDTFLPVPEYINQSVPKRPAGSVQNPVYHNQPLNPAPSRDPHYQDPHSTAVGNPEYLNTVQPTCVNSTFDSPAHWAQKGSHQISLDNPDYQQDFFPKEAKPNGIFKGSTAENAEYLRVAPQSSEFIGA
Chain of Epidermal growth factor receptor (Homo sapiens, UniProt P00533, L858R/T790M) (P00533 25-1210 T790M/L858R limits assumed): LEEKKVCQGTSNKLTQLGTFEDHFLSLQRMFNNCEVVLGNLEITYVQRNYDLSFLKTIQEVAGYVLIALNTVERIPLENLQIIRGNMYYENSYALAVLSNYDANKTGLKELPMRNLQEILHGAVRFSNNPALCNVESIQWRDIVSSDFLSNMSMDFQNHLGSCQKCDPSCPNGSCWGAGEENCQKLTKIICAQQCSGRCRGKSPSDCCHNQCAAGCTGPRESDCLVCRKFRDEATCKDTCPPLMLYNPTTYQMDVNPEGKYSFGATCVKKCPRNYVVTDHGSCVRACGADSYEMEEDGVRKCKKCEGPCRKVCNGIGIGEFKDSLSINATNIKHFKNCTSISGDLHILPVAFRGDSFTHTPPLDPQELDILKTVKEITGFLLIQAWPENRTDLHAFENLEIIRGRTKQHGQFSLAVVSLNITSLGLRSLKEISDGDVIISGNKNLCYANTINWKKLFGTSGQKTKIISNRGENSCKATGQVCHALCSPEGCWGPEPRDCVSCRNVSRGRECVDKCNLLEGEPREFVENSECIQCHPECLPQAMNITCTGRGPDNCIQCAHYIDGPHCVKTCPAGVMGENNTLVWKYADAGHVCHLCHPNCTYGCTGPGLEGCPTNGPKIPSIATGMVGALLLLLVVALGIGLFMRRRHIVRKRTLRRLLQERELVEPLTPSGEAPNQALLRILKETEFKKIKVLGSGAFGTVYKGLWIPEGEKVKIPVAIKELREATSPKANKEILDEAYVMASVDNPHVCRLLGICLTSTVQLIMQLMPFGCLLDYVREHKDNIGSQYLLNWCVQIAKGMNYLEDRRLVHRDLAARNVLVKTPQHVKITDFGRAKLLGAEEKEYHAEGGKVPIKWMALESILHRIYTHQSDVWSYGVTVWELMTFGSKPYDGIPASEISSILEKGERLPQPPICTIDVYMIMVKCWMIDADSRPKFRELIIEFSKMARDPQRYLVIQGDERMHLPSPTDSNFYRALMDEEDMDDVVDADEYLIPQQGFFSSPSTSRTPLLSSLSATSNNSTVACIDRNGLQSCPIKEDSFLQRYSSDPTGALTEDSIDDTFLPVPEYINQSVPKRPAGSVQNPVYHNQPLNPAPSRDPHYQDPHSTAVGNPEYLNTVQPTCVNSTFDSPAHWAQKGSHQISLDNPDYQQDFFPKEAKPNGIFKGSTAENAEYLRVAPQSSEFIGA

C=CC(=O)Nc1cccc(Oc2nc(Nc3ccc(OC)cc3)nc3c2CSCC3)c1
pIC50 (A549 [1]): 5.37
pIC50 (NCI-H1975 [2]): 5.66
pIC50 (HeLa): 4.68
pIC50 (MCF7): 4.93
pIC50 (L02): < 4.30
selectivity ratio at 72 h [3]: > 11.8
inhibition (Homo sapiens): 48.1%
inhibition [4]: -1.2%
inhibition [5]: 0.5%
inhibition [6]: 3.9%
pIC50 [7]: < 6.00
pIC50 [8]: 6.27
pIC50 [9]: 6.88
Activity (NCI-H1975 [10]): Active
Activity (NCI-H1975 [11]): Active
Activity (NCI-H1975 [12]): Active
Activity (NCI-H1975 [13]): Dose-dependent effect
Activity (NCI-H1975 [14]): 0.85%
Activity (NCI-H1975 [15]): 8.23%
Activity (NCI-H1975 [16]): 87.16%
Activity (NCI-H1975 [17]): 3.76%
Activity (NCI-H1975 [18]): 0.6%
Activity (NCI-H1975 [19]): 10.7%
Activity (NCI-H1975 [20]): 81.2%
Activity (NCI-H1975 [21]): 7.5%
Activity (NCI-H1975 [22]): 0.58%
Activity (NCI-H1975 [23]): 15.46%
Activity (NCI-H1975 [24]): 78.76%
Activity (NCI-H1975 [25]): 5.2%
Activity (A549 [26]): 71.16%
Activity (A549 [27]): 20.22%
Activity (A549 [28]): 8.62%
Activity (A549 [29]): 74.87%
Activity (A549 [30]): 14.44%
Activity (A549 [31]): 10.69%
Activity (A549 [32]): 62.57%
Activity (A549 [33]): 14.2%
Activity (A549 [34]): 23.23%
Activity (A549 [35]): Dose-dependent effect

C=CC(=O)Nc1cccc(Oc2nc(Nc3ccc(N4CCN(C)CC4)cc3)nc3ccsc23)c1 [OLMUTINIB]
inhibition (Homo sapiens): inactive
inhibition [4]: inactive
inhibition [5]: 7.1%
inhibition [6]: inactive
Activity (NCI-H1975 [18]): 0.34%
Activity (NCI-H1975 [19]): 10.76%
Activity (NCI-H1975 [20]): 84.27%
Activity (NCI-H1975 [21]): 4.63%
Activity (A549 [29]): 76.63%
Activity (A549 [30]): 14.65%
Activity (A549 [31]): 8.72%

C=CC(=O)Nc1cccc(Oc2nc(Nc3cccc(C#N)c3)nc3c2CSCC3)c1
pIC50 (A549 [1]): 5.16
pIC50 (NCI-H1975 [2]): 5.34
pIC50 (HeLa): 4.46
pIC50 (MCF7): 4.66
pIC50 (L02): < 4.30
selectivity ratio at 72 h [3]: > 7.29
inhibition (Homo sapiens): 44.3%
inhibition [5]: 2.4%
inhibition [6]: -0.9%
pIC50 [7]: < 6.00
pIC50 [8]: < 6.00
pIC50 [9]: < 6.00

CCC/C=C/C(=O)Nc1cccc(Oc2nc(Nc3cccc(C#N)c3)nc3c2CSCC3)c1
pIC50 (A549 [1]): 5.24
pIC50 (NCI-H1975 [2]): 4.97
pIC50 (HeLa): 5.14
pIC50 (MCF7): 4.82
pIC50 (L02): < 4.30
selectivity ratio at 72 h [3]: > 8.64
inhibition (Homo sapiens): 62.2%
inhibition [4]: 10%
inhibition [5]: 3.6%
pIC50 [7]: < 6.00
pIC50 [8]: < 6.00
pIC50 [9]: < 6.00
